Test results: PubChem BioAssay AID1963430 (Molecular Pharmacology Branch, DTP, NCI, 2024)

Test system: 521955-158-R2-J5-PDC complex spheroid growth, % test/control
Experiment: Anticancer human tumor 521955-158-R2-J5-PDC patient-derived pancreatic carcinoma cell line growth inhibition [Asc]
Details: for IC50: curve of first compound; for viability, T/C: stronger effect = lower value
Method: Multicellular complex tumor spheroid response to apoptosis pathway targeting inhibitors Alrizomadlin, Pelcitoclax, and Dasminapant in combination with a variety of drugs and investigational agents in selected tumor cell lines
The MDM2 inhibitor alrizomadlin, the Bcl-2/Bcl-xL inhibitor pelcitoclax, and the IAPs inhibitor dasminapant were evaluated both individually and in combination with standard of care and investigational anticancer small molecules within a complex spheroid model of solid tumors. . Complex spheroids include a stromal component modeled by human endothelial cells (HUVEC) and fibroblasts modeled by human mesenchymal stem cells (MSCs). The concentration ranges selected for each drug and investigational agent were based upon clinically achievable concentrations if the clinical Cmax of the agent was known.
Compounds. The drugs and investigational agents: alrizomadlin (APG-115; NSC831270), pelcitoclax (APG-1252; NSC835773), dasminapant (APG-1387;NSC834197), TAK-243 (NSC785004), copanlisib (NSC809693), olaparib (NSC753686), talazoparib (NSC767125), cobimetinib (NSC 768068), eltanexor (KPT-8602, NSC 794443), abemaciclib (NSC 768073), sotorasib (NSC818433), adagrasib (NSC 831453), MRTX-1133 (NSC 836407), Iadademestat (ORY1001, NSC 806812), and RMC-4630 (NSC839698), were obtained from the NCI Developmental Therapeutics Program Chemical Repository. The FDA-approved anticancer drug set is available from the Developmental Therapeutics Program at https://dtp.cancer.gov/organization/dscb/obtaining/available plates.htm. […] The stock solutions were prepared in dimethyl sulfoxide (DMSO, Sigma-Aldrich, St. Louis, MO, cat. D2650) at 800-fold the tested concentration and stored at -70 degrees C prior to their use. All drugs and investigational agents were tested over a range starting from a high concentration at or near the clinical Cmax and decreasing in half-log increments. If the clinical Cmax for an agent had not been determined, the highest concentration tested was 10 microM.
The patient-derived cancer (PDC) cell lines include five colon adenocarcinomas: 186277-243-T-J2-PDC, 616215-338-R-J1-PDC, 439559-082-T-J2-PDC, 463943-066-T-J2-PDC, and 519858-162-T-J1-PDC; three pancreatic carcinomas: 323965-272-R-J2-PDC, 521955-158-R6-J3-PDC, and 521955-158-R2-J5-PDC; two uterine sarcomas: 327498-152-R-J2-PDC and 993429-296-R-J1-PDC; two rhabdomyosarcomas: 755483-174-R-J1-PDC and 772245-204-R-J1-PDC; two soft tissue sarcomas: 126254-015-R-J1-PDC and 494315-158-R-J1-PDC; two malignant fibrous histiocytomas: 317291-083-R-J1-PDC and 596521-263-R-J1-PDC; two breast carcinomas: 171881-019-R-J1-PDC and 885512-296-R-J2-PDC; and one ovarian carcinoma: 6556581-035-R-J-PDC were obtained from the NCI PDMR, (https://pdmr.cancer.gov). The established cell lines HSSY-2 synovial sarcoma (RRID:CVCL 8719), SYO-1 synovial sarcoma (RRID:CVCL_7146), MPNST malignant peripheral neural sheath tumor were obtained from the Sloan Kettering Institute. The following established cell lines were purchased from the American Type Culture Collection (ATCC, Manassas, VA), Sor the received from the NCI repository:, PANC-1 pancreatic carcinoma (CRL-1469, RRID:CVCL_0480), OVCAR-5 ovarian carcinoma (RRID:CVCL_1628), OVCAR-8 ovarian carcinoma (RRID:CVCL_1629), , MCF-7 breast carcinoma (CRL-12584, RRID:CVCL_0031), MDA-MB-231 breast carcinoma (CRL-12532, RRID:CVCL_0062), NCI-H1876 small cell lung carcinoma (CRL-5902, RRID:CVCL_1503), NCI-H510A small cell lung carcinoma (HTB-184, RRID:CVCL_1565), NCI-H1417 (CRL-5869, RRID:CVCL_1469), and NCI-H196 small cell lung carcinoma (CRL-5823, RRID:CVCL_1509). Dr. Peter Houghton (Greehey Children's Cancer Research Institute, University of Texas Health Science Center, San Antonio, TX) provided Rh-18 rhabdomyosarcoma (RRID:CVCL_1659). Pooled donor human umbilical vein endothelial cells (HUVEC, Lonza, cat. CC-2519) and human mesenchymal stem cells (hMSC, Lonza, cat. PT-2501) were purchased from Lonza (Walkersville, MD).
Cell Culture. […]

[1] = second compound 0.03 µM, first compound 0.00316 µM
[2] = second compound 0.03 µM, first compound 0.01 µM
[3] = second compound 0.03 µM, first compound 0.0316 µM
[4] = second compound 0.03 µM, first compound 0.1 µM
[5] = second compound 0.0949 µM, first compound 0.00316 µM
[6] = second compound 0.0949 µM, first compound 0.01 µM
[7] = second compound 0.0949 µM, first compound 0.0316 µM
[8] = second compound 0.0949 µM, first compound 0.1 µM
[9] = second compound 0.3 µM, first compound 0.00316 µM
[10] = second compound 0.3 µM, first compound 0.01 µM
[11] = second compound 0.3 µM, first compound 0.0316 µM
[12] = second compound 0.3 µM, first compound 0.1 µM
[13] = second compound 0.949 µM, first compound 0.00316 µM
[14] = second compound 0.949 µM, first compound 0.01 µM
[15] = second compound 0.949 µM, first compound 0.0316 µM
[16] = second compound 0.949 µM, first compound 0.1 µM
[17] = second compound 3 µM, first compound 0.00316 µM
[18] = second compound 3 µM, first compound 0.01 µM
[19] = second compound 3 µM, first compound 0.0316 µM
[20] = second compound 3 µM, first compound 0.1 µM
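Further: spheroids exposed to agents for 7 days before readout.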
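Wherever viability, T/C is given: 100% = DMSO vehicle control viability.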

COc1c(OCCCN2CCOCC2)ccc2c3n(c(=NC(=O)c4cnc(N)nc4)nc12)CCN3 + CCN1C(C(=O)NC23CCC(C(=O)O)(CC2)CC3)C(c2cccc(Cl)c2F)C2(C(=O)Nc3cc(Cl)ccc32)C12CCCCC2
IC50 (second compound 0.03 µM): 4.56 nM
IC50 (second compound 0.0949 µM): 9.08 nM
IC50 (second compound 0.3 µM): 7.14 nM
IC50 (second compound 0.949 µM): 10.6 nM
IC50 (second compound 3 µM): 30.2 nM
viability, T/C [1]: 53.5%
viability, T/C [2]: 43.2%
viability, T/C [3]: 34.5%
viability, T/C [4]: 30.3%
viability, T/C (second compound 0.03 µM, first compound 0.316 µM): 24.3%
viability, T/C (second compound 0.03 µM, first compound 1 µM): 17.3%
viability, T/C [5]: 61.1%
viability, T/C [6]: 47.8%
viability, T/C [7]: 38.2%
viability, T/C [8]: 30.3%
viability, T/C (second compound 0.0949 µM, first compound 0.316 µM): 19%
viability, T/C (second compound 0.0949 µM, first compound 1 µM): 15.2%
viability, T/C [9]: 60.2%
viability, T/C [10]: 40.4%
viability, T/C [11]: 43.3%
viability, T/C [12]: 31%
viability, T/C (second compound 0.3 µM, first compound 0.316 µM): 24.2%
viability, T/C (second compound 0.3 µM, first compound 1 µM): 23.1%
viability, T/C [13]: 71.6%
viability, T/C [14]: 44.7%
viability, T/C [15]: 40.5%
viability, T/C [16]: 31.5%
viability, T/C (second compound 0.949 µM, first compound 0.316 µM): 23.2%
viability, T/C (second compound 0.949 µM, first compound 1 µM): 15.8%
viability, T/C [17]: 93.6%
viability, T/C [18]: 74.2%
viability, T/C [19]: 43.5%
viability, T/C [20]: 37.3%
viability, T/C (second compound 3 µM, first compound 0.316 µM): 22.5%
viability, T/C (second compound 3 µM, first compound 1 µM): 16.7%

NC(=O)C(=Cn1cnc(-c2cc(C(F)(F)F)cc(C(F)(F)F)c2)n1)c1cncnc1 + CCN1C(C(=O)NC23CCC(C(=O)O)(CC2)CC3)C(c2cccc(Cl)c2F)C2(C(=O)Nc3cc(Cl)ccc32)C12CCCCC2
IC50 (second compound 0.03 µM): 6.31 nM
IC50 (second compound 0.0949 µM): 2.84 nM
IC50 (second compound 0.3 µM): 5.68 nM
IC50 (second compound 0.949 µM): 6.71 nM
IC50 (second compound 3 µM): 10.1 nM
viability, T/C (second compound 0.03 µM, first compound 0.000949 µM): 57.6%
viability, T/C (second compound 0.03 µM, first compound 0.003 µM): 62.8%
viability, T/C (second compound 0.03 µM, first compound 0.00949 µM): 44.4%
viability, T/C (second compound 0.03 µM, first compound 0.03 µM): 34.9%
viability, T/C (second compound 0.03 µM, first compound 0.0949 µM): 30.7%
viability, T/C (second compound 0.03 µM, first compound 0.3 µM): 38.5%
viability, T/C (second compound 0.0949 µM, first compound 0.000949 µM): 103%
viability, T/C (second compound 0.0949 µM, first compound 0.003 µM): 45.5%
viability, T/C (second compound 0.0949 µM, first compound 0.00949 µM): 47.2%
viability, T/C (second compound 0.0949 µM, first compound 0.03 µM): 41.7%
viability, T/C (second compound 0.0949 µM, first compound 0.0949 µM): 33%
viability, T/C (second compound 0.0949 µM, first compound 0.3 µM): 36.2%
viability, T/C (second compound 0.3 µM, first compound 0.000949 µM): 76.5%
viability, T/C (second compound 0.3 µM, first compound 0.003 µM): 51.3%
viability, T/C (second compound 0.3 µM, first compound 0.00949 µM): 50.5%
viability, T/C (second compound 0.3 µM, first compound 0.03 µM): 38.3%
viability, T/C (second compound 0.3 µM, first compound 0.0949 µM): 33.6%
viability, T/C (second compound 0.3 µM, first compound 0.3 µM): 32.8%
viability, T/C (second compound 0.949 µM, first compound 0.000949 µM): 94.2%
viability, T/C (second compound 0.949 µM, first compound 0.003 µM): 58.1%
viability, T/C (second compound 0.949 µM, first compound 0.00949 µM): 47.9%
viability, T/C (second compound 0.949 µM, first compound 0.03 µM): 42%
viability, T/C (second compound 0.949 µM, first compound 0.0949 µM): 35.7%
viability, T/C (second compound 0.949 µM, first compound 0.3 µM): 43.8%
viability, T/C (second compound 3 µM, first compound 0.000949 µM): 109%
viability, T/C (second compound 3 µM, first compound 0.003 µM): 75.6%
viability, T/C (second compound 3 µM, first compound 0.00949 µM): 53.1%
viability, T/C (second compound 3 µM, first compound 0.03 µM): 34.5%
viability, T/C (second compound 3 µM, first compound 0.0949 µM): 49.9%
viability, T/C (second compound 3 µM, first compound 0.3 µM): 45.4%

NC1CCC(NC2CC2c2ccccc2)CC1 (stereo not given) + CCN1C(C(=O)NC23CCC(C(=O)O)(CC2)CC3)C(c2cccc(Cl)c2F)C2(C(=O)Nc3cc(Cl)ccc32)C12CCCCC2
IC50 (second compound 0.03 µM): > 100 nM
IC50 (second compound 0.0949 µM): > 100 nM
IC50 (second compound 0.3 µM): > 100 nM
IC50 (second compound 0.949 µM): > 100 nM
IC50 (second compound 3 µM): > 100 nM
viability, T/C (second compound 0.03 µM, first compound 0.000316 µM): 59%
viability, T/C (second compound 0.03 µM, first compound 0.001 µM): 52.7%
viability, T/C [1]: 64.8%
viability, T/C [2]: 59.2%
viability, T/C [3]: 57.4%
viability, T/C [4]: 46.1%
viability, T/C (second compound 0.0949 µM, first compound 0.000316 µM): 55.9%
viability, T/C (second compound 0.0949 µM, first compound 0.001 µM): 55.1%
viability, T/C [5]: 69.4%
viability, T/C [6]: 59.3%
viability, T/C [7]: 65%
viability, T/C [8]: 65.8%
viability, T/C (second compound 0.3 µM, first compound 0.000316 µM): 58.5%
viability, T/C (second compound 0.3 µM, first compound 0.001 µM): 44.1%
viability, T/C [9]: 58.8%
viability, T/C [10]: 65.8%
viability, T/C [11]: 48.8%
viability, T/C [12]: 71.4%
viability, T/C (second compound 0.949 µM, first compound 0.000316 µM): 58.5%
viability, T/C (second compound 0.949 µM, first compound 0.001 µM): 66.8%
viability, T/C [13]: 74%
viability, T/C [14]: 67.5%
viability, T/C [15]: 62.5%
viability, T/C [16]: 77.4%
viability, T/C (second compound 3 µM, first compound 0.000316 µM): 84.7%
viability, T/C (second compound 3 µM, first compound 0.001 µM): 109%
viability, T/C [17]: 83.1%
viability, T/C [18]: 113%
viability, T/C [19]: 92.8%
viability, T/C [20]: 91.7%
